{"source": "ChEMBL document CHEMBL1201862", "about": "“PubChem BioAssay data set” (2004)", "key": {"[1]": {"assay": "viability of uninfected HEp-2 cells – cell-based, HTS, cytotoxicity control for RSV inhibitor project, dose response (AID 2410)", "type": "functional", "settings": "human respiratory syncytial virus"}, "Prothrombin": {"target": "Prothrombin (Homo sapiens, UniProt P00734)", "assay": "Thrombin 1536 HTS Dose Response Confirmation. [Related pubchem assays: 1046 (Thrombin 1536 HTS; hits were confirmed in this assay)]", "type": "functional"}, "[2]": {"target": "T1, Heat shock factor protein 1 (Mus musculus, UniProt P38532)", "T1 sequence (P38532 whole entry)": "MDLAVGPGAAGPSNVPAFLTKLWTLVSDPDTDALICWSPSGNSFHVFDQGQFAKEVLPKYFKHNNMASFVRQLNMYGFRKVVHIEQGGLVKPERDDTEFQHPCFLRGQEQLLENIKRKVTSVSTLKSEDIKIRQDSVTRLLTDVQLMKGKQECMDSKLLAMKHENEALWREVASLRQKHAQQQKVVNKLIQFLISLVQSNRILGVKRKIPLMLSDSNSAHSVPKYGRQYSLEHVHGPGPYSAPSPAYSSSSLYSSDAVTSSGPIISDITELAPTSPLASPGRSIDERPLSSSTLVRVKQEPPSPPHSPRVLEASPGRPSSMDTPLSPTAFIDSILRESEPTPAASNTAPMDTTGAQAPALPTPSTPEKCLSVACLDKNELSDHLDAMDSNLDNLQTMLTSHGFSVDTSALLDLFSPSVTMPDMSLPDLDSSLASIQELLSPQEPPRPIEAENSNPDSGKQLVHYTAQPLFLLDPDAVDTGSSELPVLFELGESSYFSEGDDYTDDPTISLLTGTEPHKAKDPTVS", "assay": "enhancement of HSF1-driven luciferase signal – cell-based, NIH3T3, luminescence, dose retest, confirmation (AID 435004);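 note: stress induced by proteasome inhibitor MG132 added 30 min after compound; actives raise luminescence as potentiators of the MG132 stress response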", "type": "functional"}, "[3]": {"assay": "Luminescent dose response cell-based high throughput screening assay for inhibitors of the Janus kinase 2 mutant JAK2V617F. [Related pubchem assays: 1446 (Primary screen.), 1521 (Confirmation assay.), 1486 (Counter screen.)]", "type": "functional"}, "[4]": {"assay": "Luminescence Cell-Based Dose Confirmation HTS to Identify Inhibitors of Platelet Dense Granule Release. [Related pubchem assays: 1663 (Primary HTS), 1678 (Summary of Project)]", "type": "functional"}, "[5]": {"assay": "Fluorescence Cell-Based Dose Response to Identify Inhibitors of Thrombin Receptor-Activating Peptide SFLLRN-Mediated P-Selectin Induction on Platelets. [Related pubchem assays: 1663 (Primary HTS), 1889 (retest at dose ), 1891 (counterscreen), 1678 (Project Summary)]", "type": "functional"}, "[6]": {"target": "Luciferin 4-monooxygenase (Photinus pyralis, UniProt P08659)", "sequence (P08659 whole entry)": "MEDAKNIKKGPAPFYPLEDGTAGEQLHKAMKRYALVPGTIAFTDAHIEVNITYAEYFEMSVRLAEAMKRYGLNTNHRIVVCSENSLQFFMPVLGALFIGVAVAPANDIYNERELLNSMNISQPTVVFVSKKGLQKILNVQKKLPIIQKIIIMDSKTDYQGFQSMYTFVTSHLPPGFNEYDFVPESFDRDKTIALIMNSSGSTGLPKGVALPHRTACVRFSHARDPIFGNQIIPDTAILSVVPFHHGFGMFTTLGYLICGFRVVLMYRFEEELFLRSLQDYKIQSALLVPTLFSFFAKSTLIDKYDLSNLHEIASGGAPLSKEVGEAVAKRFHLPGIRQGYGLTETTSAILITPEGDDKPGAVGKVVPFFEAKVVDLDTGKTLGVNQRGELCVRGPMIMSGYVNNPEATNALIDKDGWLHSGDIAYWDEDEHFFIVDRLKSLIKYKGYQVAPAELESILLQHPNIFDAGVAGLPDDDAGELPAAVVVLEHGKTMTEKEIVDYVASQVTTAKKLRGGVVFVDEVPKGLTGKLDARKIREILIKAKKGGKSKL", "assay": "inhibition of purified Photinus pyralis luciferase – biochemical, luminescence, dose response (AID 1891)"}, "[7]": {"assay": "Dd2 malaria parasite growth inhibition potency – SYBR Green, dry powder samples, dose response (AID 1159566);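 note: potency for growth inhibition with lower SYBR green DNA signal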", "type": "functional, cell-based"}, "[8]": {"assay": "growth inhibition of PfATP4-mutant resistant parasites – NITD609-resistant line, SYBR Green, dry powder, dose response (AID 1159571);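 note: parasites synchronized at ring stage by sorbitol before testing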", "type": "functional, cell-based"}, "[9]": {"assay": "growth inhibition of yeast DHODH-expressing 3D7 parasites – SYBR Green, dry powder samples, dose response (AID 1159570);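 note: parasite growth measured after 72 hours of compound exposure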", "type": "functional, cell-based"}, "[10]": {"assay": "Plasmodium falciparum Dd2 Sybr green parasite growth Measured in Cell-Based and Microorganism Combination System Using Plate Reader - 2153-01_Inhibitor_Dose_DryPowder_Activity_Set3.", "type": "functional"}, "[11]": {"assay": "toxicity to human HepG2 hepatoma cells – cell-based, plate reader, dry powder samples, cytotoxicity control, dose response (AID 1159569);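 note: inhibitor potency with signal falling toward the positive control level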", "type": "functional"}, "[12]": {"assay": "P. falciparum Dd2 growth inhibitors, dose response, SYBR Green, cherry-picked samples (AID 1159567)", "type": "functional, cell-based"}, "[13]": {"assay": "toxicity to human hepatoma HepG2 cells – cell-based, cherry-picked samples, cytotoxicity control, dose response (AID 1159577)", "type": "functional"}, "[14]": {"assay": "Dd2 parasite growth inhibition in erythrocytes – SYBR Green, dry powder samples, set 9, dose response (AID 1159568)", "type": "functional, cell-based"}, "[15]": {"assay": "viability loss in Vero cells – cytotoxicity control for Vif-APOBEC3G degradation inhibitor project, dose response (AID 1117358)", "type": "functional", "settings": "Vero"}, "[16]": {"assay": "Luminescence Cell-Based Dose Response HTS to Identify Inhibitors of 5'UTR Stem-Loop Driven Prion Protein mRNA Translation in H4 Neuroglioblastoma Cells. [Related pubchem assays: 1827 (Project Summary), 1813 (Primary HTS)]", "type": "functional"}, "[17]": {"assay": "alpha-synuclein stem-loop luciferase translation blockers – H4 neuroglioma cells, luminescence, confirmation (AID 1988)", "type": "functional, cell-based"}, "[18]": {"assay": "luciferase reporter signal suppression in cells – H4 neuroglioma cells, luminescence, dose response (AID 1990)", "type": "functional, cell-based"}, "Estrogen receptor": {"target": "T2, Estrogen receptor (Homo sapiens, UniProt P03372)", "T2 sequence (P03372 whole entry)": "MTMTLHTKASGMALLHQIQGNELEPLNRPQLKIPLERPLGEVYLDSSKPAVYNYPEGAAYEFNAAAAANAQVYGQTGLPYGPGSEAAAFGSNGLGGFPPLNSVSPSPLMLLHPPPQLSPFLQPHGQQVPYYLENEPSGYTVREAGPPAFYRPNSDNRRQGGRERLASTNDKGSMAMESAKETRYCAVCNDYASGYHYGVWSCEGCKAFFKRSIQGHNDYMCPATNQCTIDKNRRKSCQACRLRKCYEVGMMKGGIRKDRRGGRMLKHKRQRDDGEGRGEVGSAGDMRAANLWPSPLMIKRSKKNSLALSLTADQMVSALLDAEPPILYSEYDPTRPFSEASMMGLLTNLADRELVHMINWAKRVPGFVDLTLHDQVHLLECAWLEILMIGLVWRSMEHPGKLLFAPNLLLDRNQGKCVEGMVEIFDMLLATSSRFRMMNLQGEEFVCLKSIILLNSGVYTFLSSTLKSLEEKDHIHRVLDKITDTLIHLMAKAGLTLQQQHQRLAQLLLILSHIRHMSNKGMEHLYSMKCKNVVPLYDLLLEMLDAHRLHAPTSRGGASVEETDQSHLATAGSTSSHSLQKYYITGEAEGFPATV", "assay": "ERα coactivator recruitment enhancers – biochemical, TR-FRET, ERα LBD, dose response (AID 737)"}, "[19]": {"target": "5-hydroxytryptamine receptor 1A (Homo sapiens, UniProt P08908)", "sequence (P08908 whole entry)": "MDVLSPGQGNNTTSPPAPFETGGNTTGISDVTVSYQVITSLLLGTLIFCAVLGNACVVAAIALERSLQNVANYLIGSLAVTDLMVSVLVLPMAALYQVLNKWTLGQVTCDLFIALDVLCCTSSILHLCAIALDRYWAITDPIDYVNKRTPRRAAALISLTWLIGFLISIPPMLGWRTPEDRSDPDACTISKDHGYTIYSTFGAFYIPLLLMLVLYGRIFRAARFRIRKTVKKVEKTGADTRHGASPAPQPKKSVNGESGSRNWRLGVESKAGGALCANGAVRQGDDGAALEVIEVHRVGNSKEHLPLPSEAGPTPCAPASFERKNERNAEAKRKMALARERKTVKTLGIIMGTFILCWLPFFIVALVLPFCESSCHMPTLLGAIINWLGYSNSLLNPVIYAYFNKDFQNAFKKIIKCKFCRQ", "type": "functional"}}, "note": "Calls of active or inactive are those of the source."}
{"smiles": "COC(=O)C1=C(C)N(Cc2ccccc2)C(=O)N[C@H]1c1ccccc1", "values": [{"measurement": "IC50", "setting": "cells", "result": "5.02 µM (active)"}, {"measurement": "CC50", "setting": "[1]", "result": "33.9 µM (active)"}]}
{"smiles": "C/C(=C\\c1ccccc1)C(=O)n1nnc2ccccc21", "values": [{"measurement": "IC50", "setting": "Prothrombin", "result": "0.846 µM (active)"}]}
{"smiles": "Cc1cc(SCC(=O)N/N=C/c2ccc(O)c(O)c2)c(C)cc1Br", "values": [{"measurement": "EC50", "setting": "[2]", "result": "> 260 µM (inactive)"}, {"measurement": "IC50", "setting": "[3]", "result": "1.65 µM (active)"}]}
{"smiles": "CCOc1cc(/C=N/NC(N)=O)cc(Br)c1OCC(=O)Nc1ccccc1C", "values": [{"measurement": "EC50", "setting": "[4]", "result": "1.55 µM (active)"}, {"measurement": "EC50", "setting": "[5]", "result": "< 1 µM (active)"}, {"measurement": "EC50", "setting": "[6]", "result": "> 112 µM (not active)"}]}
{"smiles": "COc1ccccc1C#Cc1ccc([C@H]2[C@@H](C#N)N(C(=O)C3CCCC3)[C@H]2CO)cc1", "values": [{"measurement": "AC50", "setting": "[7]", "result": "0.474 µM (active)"}, {"measurement": "AC50", "setting": "[8]", "result": "0.808 µM (active)"}, {"measurement": "AC50", "setting": "[9]", "result": "0.715 µM (active)"}, {"measurement": "AC50", "setting": "[10]", "result": "1.16 µM (active)"}, {"measurement": "AC50", "setting": "[11]", "result": "23.8 µM (active)"}, {"measurement": "AC50", "setting": "[12]", "result": "0.873 µM (active)"}, {"measurement": "AC50", "setting": "[13]", "result": "34.1 µM (active)"}, {"measurement": "AC50", "setting": "[14]", "result": "0.493 µM (active)"}]}
{"smiles": "COc1cc(C(=O)NCC(c2ccco2)N2CCCC2)ccc1OCc1c(C)noc1C", "note": "(stereo not given)", "values": [{"measurement": "CC50", "setting": "[15]", "result": "> 40 µM (active)"}]}
{"smiles": "O=C(c1cc2nc(-c3ccccc3)cc(-c3ccccc3)n2n1)N1CCC2(CC1)OCCO2", "values": [{"measurement": "IC50", "setting": "cells", "result": "3.6 µM (active)"}, {"measurement": "EC50", "setting": "[16]", "result": "12.9 µM (active)"}, {"measurement": "EC50", "setting": "[17]", "result": "115 µM (active)"}, {"measurement": "CC50", "setting": "[1]", "result": "28.9 µM (active)"}, {"measurement": "EC50", "setting": "[18]", "result": "24.2 µM (active)"}]}
{"smiles": "O=C(Cc1ccccc1)Nc1ccc2oc(-c3cccnc3)nc2c1", "values": [{"measurement": "EC50", "setting": "Estrogen receptor", "result": "21.2 µM (active)"}]}
{"smiles": "CCCC(=O)Nc1ccc2c(c1)OC[C@@H](C)N(Cc1ccc(F)cc1)C[C@@H](C)[C@H](OC)CN(C)C2=O", "values": [{"measurement": "AC50", "setting": "[7]", "result": "0.753 µM (active)"}, {"measurement": "AC50", "setting": "[8]", "result": "2.44 µM (active)"}, {"measurement": "AC50", "setting": "[9]", "result": "9.67 µM (active)"}, {"measurement": "AC50", "setting": "[10]", "result": "2.51 µM (active)"}, {"measurement": "AC50", "setting": "[11]", "result": "75.8 µM (active)"}, {"measurement": "AC50", "setting": "[12]", "result": "1.92 µM (active)"}]}
{"smiles": "NCCc1c[nH]c2ccc(F)cc12", "values": [{"measurement": "EC50", "setting": "[19]", "result": "2.22 µM (active)"}]}
